{
  "source": "patent EP0432983A2",
  "about": "(priority 1989, dated 1991)",
  "key": {"[1]": {"test_system": "BHK (Hamster kidney fibroblast)", "experiment": "Cytotoxicity assay, BHK", "format": "cell-based", "description": "(§1) With compounds AH-3, AH-4 and AH-5, four general anti-tumour assays and two cytotoxicity assays were performed. Current screening protocols were employed using test substance diluted as above and at varying concentrations. Tests were performed against the tumour cells P-388 (mouse DBA/2 lymphoid neoplasm), A-549 (human lung carcinoma), HT-29 (human colon carcinoma) and MCF-7 (human breast carcinoma) and for the cytotoxicity assays against CV-1 (monkey kidney fibroblast) and BHK (Hamster kidney fibroblast).\n(§2) Scoring is performed as follows: (-) no activity - the number of cells is equal to the control of growth, 0-40% cell inhibition (+) low activity - numbers of cells are reduced by approx 50-60% (++) good activity - numbers of cells are reduced by approx 70-90% (+++) very good activity - there is 100% cell inhibition [(+) is the approximate IC₅₀]"}, "[2]": {"test_system": "HSV-1 (herpes simplex virus, type 1)", "experiment": "General anti-viral assay, HSV-1 in CV-1 cells (plaque reduction)", "format": "cell-based", "settings": "Human alphaherpesvirus 1; CV-1/ HSV-1; read-out: IC50 µg/ml approx"}, "[3]": {"test_system": "CV-1 (monkey kidney fibroblast)", "experiment": "Cytotoxicity assay, CV-1", "format": "cell-based", "description": "as §1, §2"}, "[4]": {"test_system": "HT-29 (human colon carcinoma)", "experiment": "General anti-tumour assay, HT-29", "format": "cell-based", "description": "as §1, §2"}, "[5]": {"test_system": "MCF-7 (human breast carcinoma)", "experiment": "General anti-tumour assay, MCF-7", "format": "cell-based", "description": "as §1, §2"}, "[6]": {"test_system": "A-549 (human lung carcinoma)", "experiment": "General anti-tumour assay, A-549", "format": "cell-based", "description": "as §1, §2"}, "[7]": {"test_system": "P-388 (mouse DBA/2 lymphoid neoplasm)", "experiment": "General anti-tumour assay, P-388", "format": "cell-based", "description": "as §1, §2"}, "[8]": {"test_system": "VSV (Vesicular Stomatitis Virus)", "experiment": "microbe, parasite or virus in culture", "format": "cell-based", "settings": "BHK, read-out: IC50 µg/ml approx"}},
  "data": [
    {"smiles": "CC(C)=CC1CC(C)C2CCC(C)c3c4c(c(C)c1c32)OCO4", "note": "(stereo not drawn) [AH-5, Helioporin E]", "values": [
      {"measurement": "IC50", "setting": "[1]; Mesocricetus auratus, read-out: IC50 µg/ml approx", "value": "~5", "unit": "µg/mL"},
      {"measurement": "activity (cell inhibition)", "setting": "[1]; TEST CONC (µg) 0.2", "value": "- ((-) no activity - the number of cells is equal to the control of growth, 0-40% cell inhibition)"},
      {"measurement": "activity (cell inhibition)", "setting": "[1]; TEST CONC (µg) 0.5", "value": "- ((-) no activity - the number of cells is equal to the control of growth, 0-40% cell inhibition)"},
      {"measurement": "activity (cell inhibition)", "setting": "[1]; TEST CONC (µg) 1", "value": "- ((-) no activity - the number of cells is equal to the control of growth, 0-40% cell inhibition)"},
      {"measurement": "activity (cell inhibition)", "setting": "[1]; TEST CONC (µg) 2", "value": "- ((-) no activity - the number of cells is equal to the control of growth, 0-40% cell inhibition)"},
      {"measurement": "activity (cell inhibition)", "setting": "[1]; TEST CONC (µg) 5", "value": "+ ((+) low activity - numbers of cells are reduced by approx 50-60%)"},
      {"measurement": "activity (cell inhibition)", "setting": "[1]; TEST CONC (µg) 10", "value": "+++ ((+++) very good activity - there is 100% cell inhibition)"},
      {"measurement": "activity (cell inhibition)", "setting": "[1]; TEST CONC (µg) 20", "value": "+++ ((+++) very good activity - there is 100% cell inhibition)"},
      {"measurement": "IC50", "setting": "[2]", "value": "> 40", "unit": "µg/mL"},
      {"measurement": "activity (cell inhibition)", "setting": "[3]; CV-1, TEST CONC (µg) 0.2", "value": "- ((-) no activity - the number of cells is equal to the control of growth, 0-40% cell inhibition)"},
      {"measurement": "activity (cell inhibition)", "setting": "[3]; CV-1, TEST CONC (µg) 0.5", "value": "- ((-) no activity - the number of cells is equal to the control of growth, 0-40% cell inhibition)"},
      {"measurement": "activity (cell inhibition)", "setting": "[3]; CV-1, TEST CONC (µg) 1", "value": "- ((-) no activity - the number of cells is equal to the control of growth, 0-40% cell inhibition)"},
      {"measurement": "activity (cell inhibition)", "setting": "[3]; CV-1, TEST CONC (µg) 2", "value": "- ((-) no activity - the number of cells is equal to the control of growth, 0-40% cell inhibition)"},
      {"measurement": "activity (cell inhibition)", "setting": "[3]; CV-1, TEST CONC (µg) 5", "value": "- ((-) no activity - the number of cells is equal to the control of growth, 0-40% cell inhibition)"},
      {"measurement": "activity (cell inhibition)", "setting": "[3]; CV-1, TEST CONC (µg) 10", "value": "- ((-) no activity - the number of cells is equal to the control of growth, 0-40% cell inhibition)"},
      {"measurement": "activity (cell inhibition)", "setting": "[3]; CV-1, TEST CONC (µg) 20", "value": "++ ((++) good activity - numbers of cells are reduced by approx 70-90%)"},
      {"measurement": "IC50", "setting": "[3]; Primates, CV-1, read-out: IC50 µg/ml approx", "value": "10 to 20", "unit": "µg/mL"},
      {"measurement": "activity (cell inhibition)", "setting": "[4]; HT-29, TEST CONC (µg) 0.2", "value": "- ((-) no activity - the number of cells is equal to the control of growth, 0-40% cell inhibition)"},
      {"measurement": "activity (cell inhibition)", "setting": "[4]; HT-29, TEST CONC (µg) 0.5", "value": "- ((-) no activity - the number of cells is equal to the control of growth, 0-40% cell inhibition)"},
      {"measurement": "activity (cell inhibition)", "setting": "[4]; HT-29, TEST CONC (µg) 1", "value": "- ((-) no activity - the number of cells is equal to the control of growth, 0-40% cell inhibition)"},
      {"measurement": "activity (cell inhibition)", "setting": "[4]; HT-29, TEST CONC (µg) 2", "value": "- ((-) no activity - the number of cells is equal to the control of growth, 0-40% cell inhibition)"},
      {"measurement": "activity (cell inhibition)", "setting": "[4]; HT-29, TEST CONC (µg) 5", "value": "+ ((+) low activity - numbers of cells are reduced by approx 50-60%)"},
      {"measurement": "activity (cell inhibition)", "setting": "[4]; HT-29, TEST CONC (µg) 10", "value": "++ ((++) good activity - numbers of cells are reduced by approx 70-90%)"},
      {"measurement": "activity (cell inhibition)", "setting": "[4]; HT-29, TEST CONC (µg) 20", "value": "+++ ((+++) very good activity - there is 100% cell inhibition)"},
      {"measurement": "IC50", "setting": "[4]; Homo sapiens, HT-29, read-out: IC50 µg/ml approx", "value": "~5", "unit": "µg/mL"},
      {"measurement": "cytotoxicity (inhibition zone on the cell sheet)", "setting": "BHK cells", "value": "0-"},
      {"measurement": "IC50", "setting": "[5]; Homo sapiens, MCF7, MCF-7, read-out: IC50 µg/ml approx", "value": "~10", "unit": "µg/mL"},
      {"measurement": "activity (cell inhibition)", "setting": "[5]; MCF-7, TEST CONC (µg) 0.2", "value": "- ((-) no activity - the number of cells is equal to the control of growth, 0-40% cell inhibition)"},
      {"measurement": "activity (cell inhibition)", "setting": "[5]; MCF-7, TEST CONC (µg) 0.5", "value": "- ((-) no activity - the number of cells is equal to the control of growth, 0-40% cell inhibition)"},
      {"measurement": "activity (cell inhibition)", "setting": "[5]; MCF-7, TEST CONC (µg) 1", "value": "- ((-) no activity - the number of cells is equal to the control of growth, 0-40% cell inhibition)"},
      {"measurement": "activity (cell inhibition)", "setting": "[5]; MCF-7, TEST CONC (µg) 2", "value": "- ((-) no activity - the number of cells is equal to the control of growth, 0-40% cell inhibition)"},
      {"measurement": "activity (cell inhibition)", "setting": "[5]; MCF-7, TEST CONC (µg) 5", "value": "- ((-) no activity - the number of cells is equal to the control of growth, 0-40% cell inhibition)"},
      {"measurement": "activity (cell inhibition)", "setting": "[5]; MCF-7, TEST CONC (µg) 10", "value": "+ ((+) low activity - numbers of cells are reduced by approx 50-60%)"},
      {"measurement": "activity (cell inhibition)", "setting": "[5]; MCF-7, TEST CONC (µg) 20", "value": "+++ ((+++) very good activity - there is 100% cell inhibition)"},
      {"measurement": "activity (cell inhibition)", "setting": "[6]; A-549, TEST CONC (µg) 0.2", "value": "- ((-) no activity - the number of cells is equal to the control of growth, 0-40% cell inhibition)"},
      {"measurement": "activity (cell inhibition)", "setting": "[6]; A-549, TEST CONC (µg) 0.5", "value": "- ((-) no activity - the number of cells is equal to the control of growth, 0-40% cell inhibition)"},
      {"measurement": "activity (cell inhibition)", "setting": "[6]; A-549, TEST CONC (µg) 1", "value": "- ((-) no activity - the number of cells is equal to the control of growth, 0-40% cell inhibition)"},
      {"measurement": "activity (cell inhibition)", "setting": "[6]; A-549, TEST CONC (µg) 2", "value": "- ((-) no activity - the number of cells is equal to the control of growth, 0-40% cell inhibition)"},
      {"measurement": "activity (cell inhibition)", "setting": "[6]; A-549, TEST CONC (µg) 5", "value": "- ((-) no activity - the number of cells is equal to the control of growth, 0-40% cell inhibition)"},
      {"measurement": "activity (cell inhibition)", "setting": "[6]; A-549, TEST CONC (µg) 10", "value": "- ((-) no activity - the number of cells is equal to the control of growth, 0-40% cell inhibition)"},
      {"measurement": "activity (cell inhibition)", "setting": "[6]; A-549, TEST CONC (µg) 20", "value": "- ((-) no activity - the number of cells is equal to the control of growth, 0-40% cell inhibition)"},
      {"measurement": "IC50", "setting": "[6]; Homo sapiens, A549, A-549, read-out: IC50 µg/ml approx", "value": "> 20", "unit": "µg/mL"},
      {"measurement": "IC50", "setting": "[7]; Mus musculus, P388, P-388, read-out: IC50 µg/ml approx", "value": "5 to 10", "unit": "µg/mL"},
      {"measurement": "activity (cell inhibition)", "setting": "[7]; P-388, TEST CONC (µg) 0.2", "value": "- ((-) no activity - the number of cells is equal to the control of growth, 0-40% cell inhibition)"},
      {"measurement": "activity (cell inhibition)", "setting": "[7]; P-388, TEST CONC (µg) 0.5", "value": "- ((-) no activity - the number of cells is equal to the control of growth, 0-40% cell inhibition)"},
      {"measurement": "activity (cell inhibition)", "setting": "[7]; P-388, TEST CONC (µg) 1", "value": "- ((-) no activity - the number of cells is equal to the control of growth, 0-40% cell inhibition)"},
      {"measurement": "activity (cell inhibition)", "setting": "[7]; P-388, TEST CONC (µg) 2", "value": "- ((-) no activity - the number of cells is equal to the control of growth, 0-40% cell inhibition)"},
      {"measurement": "activity (cell inhibition)", "setting": "[7]; P-388, TEST CONC (µg) 5", "value": "- ((-) no activity - the number of cells is equal to the control of growth, 0-40% cell inhibition)"},
      {"measurement": "activity (cell inhibition)", "setting": "[7]; P-388, TEST CONC (µg) 10", "value": "++ ((++) good activity - numbers of cells are reduced by approx 70-90%)"},
      {"measurement": "activity (cell inhibition)", "setting": "[7]; P-388, TEST CONC (µg) 20", "value": "++ ((++) good activity - numbers of cells are reduced by approx 70-90%)"},
      {"measurement": "IC50", "setting": "[8]", "value": "> 40", "unit": "µg/mL"}
    ]}
  ]
}
